From US7176234B2, “Derivatives of gambogic acid and analogs as activators of caspases and inducers of apoptosis” (priority 2002, dated 2007)
Where two headings read alike, the source gives them in different places. Values belong to the compound of their own block, whether it stands above or below them.

Columns and labels:
T-47D = assay: Caspase cascade activation / apoptosis induction assay (N-(Ac-DEVD)-N'-ethoxycarbonyl-R110 substrate) in T-47D cells; format: cell-based, Human; conditions: for Caspase activity (Ratio): ratio of net RFU to control
Experimental: (§1) Human breast cancer cell lines T-47D and ZR-75-1 were grown according to media component mixtures designated by American Type Culture Collection+10% FCS (Invitrogen Corporation), in a 5% CO2-95% humidity incubator at 37° C. T-47D and ZR-75-1 cells were maintained at a cell density between 30 and 80% confluency and for HL-60 at a cell density of 0.1 to 0.6×10^6 cells/ml. Cells were harvested at 600×g and resuspended at 0.65×10^6 cells/mL into appropriate media+10% FCS. An aliquot of 45 μl of cells was added to a well of a 96-well microtiter plate containing 5 μl of a 10% DMSO in RPMI-1640 media solution containing 1.6 to 100 μM of gambogic acid or other test compound (0.16 to 10 μM final). An aliquot of 45 μl of cells was added to a well of a 96-well microtiter plate containing […] of a 10% DMSO in RPMI-1640 media solution without test compound as the control sample. The samples were mixed by agitation and then incubated at 37° C. for 24 h in a 5% CO2-95% humidity incubator. After incubation, the samples were removed from the incubator and 50 μl of a solution containing 20 μM of N-(Ac-DEVD)-N′-ethoxycarbonyl-R110 fluorogenic substrate SEQ ID NO:1 (Cytovia, Inc.; U.S. Pat. No. 6,335,429), 20% sucrose (Sigma), 20 mM DTT (Sigma), 200 mM NaCl (Sigma), 40 mM Na PIPES buffer pH 7.2 (Sigma), and 500 μg/mL lysolecithin (Calbiochem) was added. The samples were mixed by agitation and incubated at room temperature. Using a fluorescent plate reader (Model 1420 Wallac Instruments), an initial reading (T=0) was made approximately 1–2 min after addition of the substrate solution, employing excitation at 485 nm and emission at 530 nm, to determine the background fluorescence of the control sample. After approximately 3 h of incubation, the samples were read for fluorescence as above (T=3 h).
(§2) The Relative Fluorescence Unit values (RFU) were used to calculate the sample readings as follows: RFU(T=3h)−Control RFU(T=0)=Net RFU(T=3h)
(§3) The activity of caspase cascade activation was determined by the ratio of the net RFU value for derivatives of gambogic acid to that of control samples. The EC50 (nM) was determined by a sigmoidal dose-response calculation (Prism 2.0, GraphPad Software Inc.).
Methyl 9,10-dihydro-10-morpholinyl-gambogate and gambogic acid were assayed as described in Example 28 in T47D cells. The samples of cells and testing compound were incubated for 5 h and 24 h, respectively. Table II summarizes the caspase activity (Ratio) and potency (EC50) of methyl 9,10-dihydro-10-morpholinyl-gambogate (compound B) in the 5 h and 24 h assays, in comparison with that of gambogic acid (compound A).

ZR-75-1 = assay: Caspase cascade activation / apoptosis induction assay (N-(Ac-DEVD)-N'-ethoxycarbonyl-R110 substrate) in ZR-75-1 cells; format: cell-based, Human; conditions: ZR-75-1, 24 h incubation; for Caspase activity (Ratio): ratio of net RFU to control; for EC50: read-out: Caspase potency EC50
Experimental: as §1, §2, §3

KB cell line = conditions: cited from earlier work
KB-V1 cell line = conditions: cited from earlier work
ICR (CD-1) mice = assay: Maximum tolerated dose (MTD) in mice, I.V.; format: in vivo; conditions: mice
Experimental: For acute toxicity studies, 3 ICR (CD-1) mice were used per each dose group. Animals were given a single bolus injection in the tail vein with approximately 100 μl volume of compound formulation or vehicle formulation. Mice body weights were measured daily along with daily observation for clinical abnormalities. The maximum tolerated dose (MTD) was defined as the dose that results in less than 10% decrease in body weight with no clinical abnormalities.
For multiple dose studies, the animals were dosed once a day for 5 days.
Table IV summarizes the MTD of gambogic acid and methyl 9,10-dihydro-10-morpholinyl-gambogate in mice by I.V. administration.

[1] = Pharmacokinetic studies in mice (plasma, LC/MS/MS); format: in vivo, ICR mice
Experimental: ICR mice were administered a single dose of drug into the tail vein. At each time point, 3 animals were sacrificed and the blood was withdrawn by cardiac puncture. The blood cells were spun down and the plasma was collected and frozen immediately in liquid nitrogen. For sample processing, the plasma was thawed and extraction solvent was added along with an internal standard to assess recoveries. The samples were vortexed followed by centrifugation, and the extraction solution was collected and subjected to LC/MS/MS analysis to identify and quantitate the compound plasma concentration. The levels of compound from the three animals at each time point were averaged and the pharmacokinetic parameters calculated using WinNonLin program. Table V summarized the major PK parameters.

ZR75-1 (Breast cancer) = assay: Efficacy in human tumor xenograft mouse model ZR75-1; format: in vivo, human tumor in CD1 nu/nu mice; conditions: ZR75-1 xenograft, 5 mg/kg, every other day, I.V.
Experimental: (§4) CD1 nu/nu mice were used. Viable tumor bits of transplantable human xenografts approximately 50 mg of trocar or cultured human tumor cells (nx106 cells?) were implanted subcutaneously into the flank region of mice and tumors were allowed to grow to the desired average size of 100 mg. The mice were measured for tumor size and those within the accepted tumor range of 75–125 mg, were randomized into control and treatment groups with 8–9 mice per group. Treatment was initiated on these groups which have an average starting tumor size of 100 mg. The control group was injected with the vehicle used to dissolve the drug. Injections were I.V. via the tail vein. Tumor measurements were taken every other day along with weights of animals and all animals were observed daily for survival. Tumor size was calculated by the equation of: Tumor volume=(length×width^2)/2.

[2] = tested on: human tumor xenograft models; assay: Efficacy studies in human tumor xenograft models (text summary, model not named); format: in vivo, human tumor in nu/nu mice
Experimental: as §4

HeLa cells = conditions: cited from earlier work
HEL cells = conditions: cited from earlier work
[3] = Conversion of methyl 9,10-dihydro-10-morpholinyl-gambogate to methyl gambogate in biological media (HPLC); format: physicochemical; conditions: solution of compound B 5 mg/ml in 87.5% RPMI 1640, 37° C., HPLC peak area
Experimental: A solution of methyl 9,10-dihydro-10-morpholinyl-gambogate in 87.5% RPMI 1640 biological Media (Invitrogen Corporation, Carlsbad, Calif.), 5.6% EtOH, 1.3% DMSO, and 5.6% Cremophor EL at a concentration of 5 mg/ml was stored at 37° C. The amount of methyl 9,10-dihydro-10-morpholinyl-gambogate (compound B) and methyl gambogate (compound C) was measured by integration of the peak area. The HPLC was run in the Beckman System Gold with 32 Karate software under the following conditions: […]

[4] = T-47D, 24 h incubation, read-out: Caspase potency EC50

EC50 (T-47D; [4]): 592 nM
EC50 (ZR-75-1): 1380 nM
SMILES: CC(C)=CCCC1(C)C=Cc2c(O)c3c(c(CC=C(C)C)c2O1)OC12C(C3=O)C(N3CCOCC3)C3CC1C(C)(C)OC2(C/C=C(/C)C(=O)N1CCOCC1)C3=O (stereo not shown) [Example 10, 9,10-Dihydro-10-morpholinyl-gambogyl Morpholine]
Caspase activity (Ratio) (T-47D; T-47D, 24 h incubation): 23
Caspase activity (Ratio) (ZR-75-1): 7.0

SMILES: CC(C)=CCc1c2c(c(O)c3c1OC14C(=CC5CC1C(C)(C)OC4(C/C=C(\C)CO)C5=O)C3=O)C=CC(C)(C)O2 (stereo not shown) [isomorellinol]
Cytotoxicity (KB cell line; KB cell line): cytotoxic
Cytotoxicity (KB-V1 cell line; KB-V1 cell line): cytotoxic

EC50 (T-47D; [4]): 714 nM
EC50 (ZR-75-1): 1450 nM
SMILES: CC(C)=CCCC1(C)C=Cc2c(O)c3c(c(CC=C(C)C)c2O1)OC12C(C3=O)C(NCCN3CCOCC3)C3CC1C(C)(C)OC2(C/C=C(/C)C(=O)N1CCN(C)CC1)C3=O (stereo not shown) [Example 6, 9,10-Dihydro-10-[2-(morpholinyl)ethylamino]-gambogyl (N-Methylpiperazine)]
Caspase activity (Ratio) (T-47D; T-47D, 24 h incubation): 17
Caspase activity (Ratio) (ZR-75-1): 4.1

EC50 (T-47D; [4]): 1960 nM
EC50 (ZR-75-1): 5210 nM
SMILES: CC(C)=CCCC1(C)C=Cc2c(O)c3c(c(CC=C(C)C)c2O1)OC12C(C3=O)C(OCCN(C)C)C3CC1C(C)(C)OC2(C/C=C(/C)C(=O)N1CCN(C)CC1)C3=O (stereo not shown) [Example 9, 9,10-Dihydro-10-(2-dimethylaminoethoxy)-gambogyl (N-Methylpiperazine)]
Caspase activity (Ratio) (T-47D; T-47D, 24 h incubation): 15
Caspase activity (Ratio) (ZR-75-1): 16

EC50 (T-47D; [4]): 1340 nM
EC50 (ZR-75-1): 3980 nM
SMILES: CC(C)=CCCC1(C)C=Cc2c(O)c3c(c(CC=C(C)C)c2O1)OC12C(C3=O)C(N3CCOCC3)C3CC1C(C)(C)OC2(C/C=C(/C)C(=O)N1CCN(C)CC1)C3=O (stereo not shown) [Example 4, 9,10-Dihydro-10-morpholinyl-gambogyl (N-Methylpiperazine)]
Caspase activity (Ratio) (T-47D; T-47D, 24 h incubation): 19
Caspase activity (Ratio) (ZR-75-1): 18

SMILES: CC(C)=CCC[C@]1(C)C=Cc2c(O)c3c(c(CC=C(C)C)c2O1)O[C@]12C(=C[C@@H]4C[C@H]1C(C)(C)O[C@@]2(C/C=C(/C)C(=O)O)C4=O)C3=O [Compound A, Gambogic acid]
Activity in the caspase activation / apoptosis induction assay (in words), 5 h (T-47D; T47D cells, 5 h assay): active
Caspase activity (Ratio), 5 h (T-47D; T47D cells, 5 h assay): 29.5
EC50 (T-47D; T47D cells, 5 h assay, read-out: Caspase potency EC50, 5 h): 1740 nM
Activity in the caspase activation / apoptosis induction assay (in words), 24 h (T-47D; T47D cells, 24 h assay): active
Caspase activity (Ratio), 24 h (T-47D; T47D cells, 24 h assay): 12.1
EC50 (T-47D; T47D cells, 24 h assay, read-out: Caspase potency EC50, 24 h): 700 nM
Multiple Dose MTD (ICR (CD-1) mice; I.V., once a day, 5 doses): 5 mg/kg
Injection site toxicity (ICR (CD-1) mice; tail vein injection): evidence of injection site toxicity, such as tail edema
T1/2, Terminal half-life ([1]; mice, single I.V. dose 5 mg/kg): 4.8 h
AUC (0-inf), Area under the curve ([1]; mouse, in vivo, iv, 5 mg/kg): 2,700 ng-h/ml
CL, Clearance ([1]; mouse, in vivo, iv, 5 mg/kg): 30.7 mL/min/kg
Vss, Vol. of distribution ([1]; mouse, in vivo, iv, 5 mg/kg): 2.9 L/kg
% Tumor reduction (ZR75-1 (Breast cancer)): 20%
Best efficacy, tumor growth inhibition ([2]; human tumor cells s.c. in nu/nu mice, at doses that were toxic, not statistically significant): approximately 20%
Efficacy (in words) ([2]; summary of Table VI, gambogic acid at its maximal tolerable dose): did not produce significant efficacy
Cytotoxicity (HeLa cells): cytotoxic
Cytotoxicity (HEL cells): cytotoxic
Cytotoxicity (KB cell line): cytotoxic
Cytotoxicity (KB-V1 cell line): cytotoxic

SMILES: COC(=O)/C(C)=C\C[C@@]12OC(C)(C)[C@@H]3C[C@@H](C=C4C(=O)c5c(O)c6c(c(CC=C(C)C)c5O[C@]431)O[C@](C)(CCC=C(C)C)C=C6)C2=O [C, Methyl gambogate]
Amount in biological media, 0 h ([3]; 0 h): 4
Amount in biological media, 2 h ([3]; 2 h): 3
Amount in biological media, 18 h ([3]; 18 h): 26
Amount in biological media, 48 h ([3]; 48 h): 48
Amount in biological media, 90 h ([3]; 90 h): 64

EC50 (T-47D; [4]): 598 nM
EC50 (ZR-75-1): > 10000 nM
SMILES: CC(C)=CCCC1(C)C=Cc2c(O)c3c(c(CC=C(C)C)c2O1)OC12C(C3=O)C(N3CCN(c4ccccn4)CC3)C3CC1C(C)(C)OC2(C/C=C(/C)C(=O)N1CCN(C)CC1)C3=O (stereo not shown) [Example 7, 9,10-Dihydro-10-[4-(2-pyridyl)piperazinyl]-gambogyl (N-Methylpiperazine)]
Caspase activity (Ratio) (T-47D; T-47D, 24 h incubation): 2.2
Caspase activity (Ratio) (ZR-75-1): 1.6

EC50 (T-47D; [4]): 846 nM
EC50 (ZR-75-1): 2340 nM
SMILES: CC(C)=CCCC1(C)C=Cc2c(O)c3c(c(CC=C(C)C)c2O1)OC12C(C3=O)C(N3CCCCC3)C3CC1C(C)(C)OC2(C/C=C(/C)C(=O)N1CCN(C)CC1)C3=O (stereo not shown) [Example 5, 9,10-Dihydro-10-piperidinyl-gambogyl (N-Methylpiperazine)]
Caspase activity (Ratio) (T-47D; T-47D, 24 h incubation): 23
Caspase activity (Ratio) (ZR-75-1): 5.3

SMILES: CC(C)=CCC[C@]1(C)C=Cc2c(O)c3c(c(CC=C(C)C)c2O1)O[C@]12C(=C[C@@H]4C[C@H]1C(C)(C)O[C@@]2(C/C=C(\C)C(=O)O)C4=O)C3=O [isogambogic acid]
Cytotoxicity (KB cell line): cytotoxic
Cytotoxicity (KB-V1 cell line): cytotoxic
